For the experiment, the target named is Nischarin (Rattus norvegicus, UniProt Q4G017).

Data on eleven molecules can be found in BindingDB's records for PubMed 9536007 (University of Bonn, 1998).

Structures are written as SMILES. “And” between values parts separate entries of the source, which are not always exact repeats. Identical values can stand only once. Counter-ions that a name gives are not always drawn.

Nischarin, sequence (Q4G017 whole entry): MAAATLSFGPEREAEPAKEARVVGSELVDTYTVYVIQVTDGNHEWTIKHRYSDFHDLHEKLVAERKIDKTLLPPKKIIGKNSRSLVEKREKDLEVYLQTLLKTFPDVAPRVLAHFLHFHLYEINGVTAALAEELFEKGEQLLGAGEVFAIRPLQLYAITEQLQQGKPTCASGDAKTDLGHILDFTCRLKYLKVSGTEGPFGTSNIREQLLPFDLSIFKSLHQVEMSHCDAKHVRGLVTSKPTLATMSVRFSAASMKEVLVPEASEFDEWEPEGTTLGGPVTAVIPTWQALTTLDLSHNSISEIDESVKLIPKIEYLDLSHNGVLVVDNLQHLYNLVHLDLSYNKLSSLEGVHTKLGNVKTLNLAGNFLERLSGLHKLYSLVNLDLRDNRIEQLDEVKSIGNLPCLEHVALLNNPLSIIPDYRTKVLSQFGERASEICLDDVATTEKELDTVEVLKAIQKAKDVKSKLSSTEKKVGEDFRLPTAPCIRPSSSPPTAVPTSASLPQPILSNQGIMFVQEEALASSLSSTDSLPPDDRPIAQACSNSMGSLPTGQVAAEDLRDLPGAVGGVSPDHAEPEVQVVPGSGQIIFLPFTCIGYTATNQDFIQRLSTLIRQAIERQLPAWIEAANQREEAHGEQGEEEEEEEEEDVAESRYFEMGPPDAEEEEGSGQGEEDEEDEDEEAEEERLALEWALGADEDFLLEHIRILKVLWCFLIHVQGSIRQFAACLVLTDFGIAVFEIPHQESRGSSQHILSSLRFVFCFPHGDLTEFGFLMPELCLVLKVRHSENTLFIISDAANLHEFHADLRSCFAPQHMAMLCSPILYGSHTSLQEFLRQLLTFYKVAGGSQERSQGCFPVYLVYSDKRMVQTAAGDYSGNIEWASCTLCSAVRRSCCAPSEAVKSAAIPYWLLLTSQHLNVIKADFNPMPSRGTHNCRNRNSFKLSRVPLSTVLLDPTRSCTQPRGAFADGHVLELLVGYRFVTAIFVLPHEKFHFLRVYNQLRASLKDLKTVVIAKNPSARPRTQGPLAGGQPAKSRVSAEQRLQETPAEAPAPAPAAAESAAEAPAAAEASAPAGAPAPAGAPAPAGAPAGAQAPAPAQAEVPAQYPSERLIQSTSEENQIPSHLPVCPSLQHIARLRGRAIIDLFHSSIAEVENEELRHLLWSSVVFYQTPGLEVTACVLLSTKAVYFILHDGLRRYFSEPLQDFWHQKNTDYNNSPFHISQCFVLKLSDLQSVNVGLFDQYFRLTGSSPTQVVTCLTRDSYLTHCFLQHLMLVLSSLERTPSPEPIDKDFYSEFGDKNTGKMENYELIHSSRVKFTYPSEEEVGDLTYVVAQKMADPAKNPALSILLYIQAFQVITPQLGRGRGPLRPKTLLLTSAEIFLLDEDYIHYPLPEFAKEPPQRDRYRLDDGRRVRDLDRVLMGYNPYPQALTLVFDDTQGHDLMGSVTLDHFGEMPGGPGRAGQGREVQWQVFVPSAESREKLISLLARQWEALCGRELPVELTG

Consider `N=C(N)NCCCCN`, for which the Ki is over 10 µM.

For the molecule `CC(C)=CCN1CC[C@@]2(C)c3cc(O)ccc3C[C@@H]1[C@@H]2C` [Talwin], the inhibition constant Ki is over 10 µM.

As to `Clc1cccc(Cl)c1N=C1NCCN1` [2-(2,6-dichloroanilino)-2-imidazoline], the inhibition constant Ki is 2.52 µM and > 10 µM.

Consider `NCCc1c[nH]cn1` [[3H]histamine], for which the Ki is over 10 µM.

With `CCCN1CCC[C@@H](c2cccc(O)c2)C1` [Preclamol], the inhibition constant (Ki) was over 10 µM.

As to `C[C@]12NC(Cc3ccccc31)c1ccccc12` [(5S,10S)-(+)-5-methyl-10,11-dihydro-5Hdibenzo[a,d]cyclohepten-5,10-imine], the Ki is over 10 µM.

`Cc1ccccc1NC(=N)Nc1ccccc1C` [CAS_97-39-2] yielded an inhibitory constant (Ki) of 0.93 µM.

On to `O=C(CCCN1CCC(O)(c2ccc(Cl)cc2)CC1)c1ccc(F)cc1` [4-[4-(4-Chloro-phenyl)-4-hydroxy-piperidin-1-yl]-1-(4-fluoro-phenyl)-butan-1-one;propionate(HCl)], for which the Ki was 0.5 µM.

Take `CN/C([CH-][N+](=O)[O-])=[NH+]\CCSCc1ccc(CN(C)C)o1`: the Ki was over 10 µM.

Molecule `COC(=O)[C@@H]1[C@H]2C[C@H]3c4[nH]c5ccccc5c4CCN3C[C@@H]2CC[C@@H]1O` [yohimbic acid methyl ester] yielded a Ki of over 10 µM.

With `COc1nc(C)nc(Cl)c1N=C1NCCN1` [(4-Chloro-6-methoxy-2-methyl-pyrimidin-5-yl)-imidazolidin-2-ylidene-amine], the Ki was over 10 µM.
